“Also recorded” adds a separate entry of the source. Like-named read-outs stand apart in the source and are kept apart here. One block for each molecule: values may come before it.
Columns and labels:
KGA [1] = target: T1, KGA (Homo sapiens, UniProt O94925); assay: Inhibition of KGA (glutaminase); type: biochemical
T1 sequence (O94925 55-669): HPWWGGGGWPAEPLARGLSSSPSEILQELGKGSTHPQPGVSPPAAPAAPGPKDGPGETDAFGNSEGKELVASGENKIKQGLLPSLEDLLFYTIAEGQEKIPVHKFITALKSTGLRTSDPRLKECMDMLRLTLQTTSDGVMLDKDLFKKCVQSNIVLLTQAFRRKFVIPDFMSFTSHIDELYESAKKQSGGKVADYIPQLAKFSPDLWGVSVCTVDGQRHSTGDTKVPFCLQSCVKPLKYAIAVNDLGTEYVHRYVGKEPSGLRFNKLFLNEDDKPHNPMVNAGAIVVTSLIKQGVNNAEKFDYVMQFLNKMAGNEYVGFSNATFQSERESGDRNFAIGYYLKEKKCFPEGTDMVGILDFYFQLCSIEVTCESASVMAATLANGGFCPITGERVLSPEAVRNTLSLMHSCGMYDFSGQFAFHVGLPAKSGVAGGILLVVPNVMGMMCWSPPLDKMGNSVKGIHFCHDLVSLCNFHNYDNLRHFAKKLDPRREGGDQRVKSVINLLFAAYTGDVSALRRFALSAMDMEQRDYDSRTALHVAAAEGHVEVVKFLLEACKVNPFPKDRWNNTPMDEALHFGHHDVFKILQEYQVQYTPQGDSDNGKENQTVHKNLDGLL

TrxR = details: reported; cited from earlier work
normal cells [2] = system: normal cells
T24 (Bladder cancer) = assay: Inhibition of growth of tumor cells, T24 bladder cancer; type: cell-based
Protocol: (§1) Tumor cells (1000 cells per well) which were first treated with the corresponding compound for 3 days, and then EZMTT detection reagents were added measure the cell growth.

L2 (Normal cell) = assay: Growth inhibition of L2 normal cells; type: cell-based
Protocol: as §1

PC12 = assay: Inhibition of growth of tumor cells, PC12; type: cell-based; details: Rattus norvegicus, PC-12, 72 h, read-out: IC50, PC12
Protocol: as §1

Caki = assay: Inhibition of growth of tumor cells, Caki; type: cell-based; details: 72 h, read-out: IC50, Caki
Protocol: as §1

JC82 = assay: Inhibition of growth of tumor cells, JC82; type: cell-based; details: 72 h, read-out: IC50, JC82
Protocol: as §1

A549 = assay: Inhibition of growth of tumor cells, A549; type: cell-based; details: Homo sapiens, read-out: IC50, A549
Protocol: as §1

PC3 = assay: Inhibition of growth of tumor cells, PC3; type: cell-based; details: Homo sapiens, PC-3, 72 h, read-out: IC50, PC3
Protocol: as §1

T24 tumor = assay: Subcutaneous T24 tumor model in nude mice; type: in vivo; details: immune deficient mice, 1 mg/kg subcutaneously near tumor daily, 7 days, FIG. 6
Protocol: T24 tumor cells (1,000,000) were inoculated in nude mice, and the tumor size was 10 mm×10 mm in 24th to 27th day. Then compound hexane-(3,3′-dimethyl) thioether selen in PBS solution (200 μl) was injected subcutaneously every day near the tumor with the dosage of 1 mg/kg.

A549 tumor = assay: Subcutaneous A549 tumor model in nude mice; type: in vivo; details: immune deficient mice, 1 mg/kg subcutaneously near tumor daily, 7 days, FIG. 5
Protocol: A549 tumor cells (1,000,000) were inoculated in nude mice, and the tumor size was 10 mm×10 mm in 24th to 27th day. Then compound hexane-(3,3′-dimethyl) thioether selen in PBS solution (200 μl) was injected subcutaneously every day near the tumor with the dosage of 1 mg/kg.

PC12 cells = assay: Protection of PC12 nerve cells under OGD (hypoxia-ischemia); type: cell-based; details: for Protection of PC12 cells under OGD: OGD hypoxia-ischemia condition
Description: Then observed the growth of cellular neurite growth or neural synapse.

KGA [3] = target: T1, KGA; assay: Binding to immobilized KGA by molecular interaction apparatus (ForteBio); details: KGA immobilized on ForteBio chip
Description: We suspected that ebselen may not inhibit glutaminase. […] Therefore, based on the crystal structure of the allosteric site of glutaminase, we synthesized a series of new symmetric and asymmetric ebselen derivatives with the aim to make an ebselen derived KGA inhibitor. In the derivatives, the benzene ring at the 2-position of the original ebselen molecule was replaced by a straight-chain or branched alkyl substituent containing at least one carbon atom, or a long chain containing thioether, or a smaller cycloalkyl group, and the newly obtained derivatives are effective in binding to the allosteric site of glutaminase. […] Moreover, these inhibitors that bind the allosteric site of glutaminase had good selectivity and higher potency for inhibition of tumor cell growth (<100 nM), and no damage to normal cells (10 μM). These inhibitors also had significant activity in an immunodeficient mouse model with no toxicity. These inhibitors had good inhibitory activity for various types of glutamine-dependent cancer cells (80-90%), especially urinary system tumors. The binding diagram of GAC tetramers and BPTES is shown in FIG. 1, wherein “mark 1” is the active site of substrate binding; and “mark 2” is an allosteric site for BPTES binding.
Our Papers published are Anal. Chem. 2017, 89: 1689, ACS Chemical Biology, 2017, 12:3003

[4] = system: glutamine dependent cancer cell; details: reported; read-out: Inhibiting glutamine dependent cancer cell growth IC50; cited from earlier work
normal cells [5] = assay: Toxicity to normal cells
glutaminase = target: T2, glutaminase (Homo sapiens, UniProt O94925); details: reported; read-out: Glutaminase inhibitor IC50; cited from earlier work
T2 sequence (O94925 55-669): T1 sequence (O94925 55-669)

[6] = Homo sapiens, T-24, 72 h, read-out: IC50, T24
[7] = 72 h, read-out: IC50, L2 (Normal)
[8] = bladder cancer cell line table, read-out: T24 (Bladder cancer) IC50
[9] = bladder cancer cell line table, read-out: L2 (Normal cell) IC50

Molecule: O=c1c2ccccc2[se]n1CCn1[se]c2ccccc2c1=O [ethylselen]
- Inhibition of KGA (KGA [1]): do not inhibit KGA
- Inhibition of TrxR (TrxR): strong inhibitors of TrxR
- Toxicity to normal cells (normal cells [2]): toxic to the normal cells

Molecule: O=c1c2c(F)cccc2[se]n1CCCCCCn1[se]c2cccc(F)c2c1=O [Hexane-(2,2'-difluoro) selen, Hexane-(2,2′-difluoro) selen]
- IC50 (T24 (Bladder cancer); [6]): 0.01 µM
- IC50 (L2 (Normal cell); [7]): > 10 µM
- IC50 (PC12): 5 µM
- IC50 (Caki): 1 µM
- IC50 (JC82): 2 µM
- IC50 (A549; A549, 72 h): 0.5 µM
- IC50 (PC3): 2 µM

Molecule: O=c1c2ccccc2[se]n1CCCSCCCn1[se]c2ccccc2c1=O [Thioether selen]
- IC50 (T24 (Bladder cancer); [6]): 0.5 µM
- Inhibition of growth of T24 tumor (T24 tumor): inhibition of the growth of the T24 tumor cells
- IC50 (L2 (Normal cell); [7]): > 10 µM
- IC50 (PC12): 5 µM
- IC50 (Caki): 1 µM
- IC50 (JC82): 5 µM
- Inhibition of growth of A549 tumor (A549 tumor): inhibition of the growth of the A549 tumor
- IC50 (A549; A549, 72 h): 0.5 µM
- Protection of PC12 neuronal cells under OGD condition (PC12 cells; words, FIG. 7): protection of PC12 neuronal cells
- IC50 (PC3): 2 µM

Molecule: Cc1cccc2[se]n(CCCCCCn3[se]c4cccc(C)c4c3=O)c(=O)c12 [Hexane-(3,3'-dimethyl) selen, Hexane-(3,3′-dimethyl) selen]
- IC50 (T24 (Bladder cancer); [6]): 0.2 µM
- IC50 (L2 (Normal cell); [7]): > 10 µM
- IC50 (PC12): 5 µM
- IC50 (Caki): 1 µM
- IC50 (JC82): 5 µM
- IC50 (A549; A549, 72 h): 0.5 µM
- Binding to KGA / glutaminase (KGA [3]): distinct levels of combination with KGA enzyme
- IC50 (PC3): 2 µM

- IC50 (T24 (Bladder cancer); [8]): 10 µM
Molecule: 1,6- tert butyl carbonate hexamethylendiamineselen
- IC50 (L2 (Normal cell); [9]): > 10 µM
- Protection of PC12 cells under OGD (PC12 cells): <100 nM

Molecule: O=c1c2ccccc2[se]n1CCCCCCn1[se]c2c(F)cccc2c1=O [Hexane - (2'-fluoro) selen, Hexane-(2′-fluoro) selen]
- IC50 (T24 (Bladder cancer); read-out: T24 (Bladder cancer) IC50): 0.2 µM
- IC50 (L2 (Normal cell); read-out: L2 (Normal cell) IC50): > 10 µM
- Protection of PC12 cells under OGD (PC12 cells): <100 nM

- IC50 (T24 (Bladder cancer); Homo sapiens, T-24, 72 h, T24 cells, 3 days treatment, comparison with parent nucleus, read-out: IC50, T24): > 10 µM
- IC50 (T24 (Bladder cancer); [8]): > 10 µM
- Inhibition of KGA (KGA [1]): do not inhibit KGA
- IC50 (PC12; PC12 cells, 3 days treatment): > 10 µM
- IC50 (Caki; Caki cells, 3 days treatment): > 10 µM
- IC50 (JC82; JC82 cells, 3 days treatment): > 10 µM
- IC50 (A549; 72 h, A549 cells, 3 days treatment): > 10 µM
- IC50 (PC3; PC3 cells, 3 days treatment): > 10 µM
Molecule: O=c1c2ccccc2[se]n1-c1ccccc1 [Ebselen, 2-phenylbenzoisoselenazol-3-one, reference compound]
- IC50 [4]: 20 µM
- IC50 (L2 (Normal cell); 72 h, L2 normal cells, 3 days treatment, read-out: IC50, L2 (Normal)): > 10 µM
- IC50 (L2 (Normal cell); [9]): > 10 µM
- Toxicity to normal cells (normal cells [5]): toxic to the normal cells
- Protection of PC12 cells under OGD (PC12 cells): 1000 nM
- IC50 (glutaminase): 0.009 µM
- Binding to KGA / glutaminase (KGA [3]): not bound to the KGA; also recorded: cannot directly combine toglutaminase
- Inhibition of TrxR (TrxR): strong inhibitors of TrxR
